Measurements as given in ChEMBL document CHEMBL3351844, “Synthesis and evaluation of iminocoumaryl and coumaryl derivatized glycosides as galectin antagonists” (Bioorg Med Chem Lett, 2014).
Active and inactive are the calls of the source. No cut-off for these calls is given here.

Tests used:
Galectin-3 = Galectin-3 (Homo sapiens, UniProt P17931); assay: Antagonist activity against human galectin 3 by fluorescence polarization assay
Galectin-7 = Galectin-7 (Homo sapiens, UniProt P47929); assay: Antagonist activity against human galectin 7 by fluorescence polarization assay
Galectin-7, sequence (P47929 whole entry, the tested form may be a part): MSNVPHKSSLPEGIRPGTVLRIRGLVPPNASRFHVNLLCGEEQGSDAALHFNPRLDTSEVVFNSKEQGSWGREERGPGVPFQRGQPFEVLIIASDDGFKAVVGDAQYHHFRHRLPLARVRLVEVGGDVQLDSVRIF

Galectin-9 = Galectin-9 (Homo sapiens, UniProt O00182); assay: Antagonist activity against human galectin 9 N-terminal domain by fluorescence polarization assay
Galectin-9, sequence (O00182 whole entry, the tested form may be a part): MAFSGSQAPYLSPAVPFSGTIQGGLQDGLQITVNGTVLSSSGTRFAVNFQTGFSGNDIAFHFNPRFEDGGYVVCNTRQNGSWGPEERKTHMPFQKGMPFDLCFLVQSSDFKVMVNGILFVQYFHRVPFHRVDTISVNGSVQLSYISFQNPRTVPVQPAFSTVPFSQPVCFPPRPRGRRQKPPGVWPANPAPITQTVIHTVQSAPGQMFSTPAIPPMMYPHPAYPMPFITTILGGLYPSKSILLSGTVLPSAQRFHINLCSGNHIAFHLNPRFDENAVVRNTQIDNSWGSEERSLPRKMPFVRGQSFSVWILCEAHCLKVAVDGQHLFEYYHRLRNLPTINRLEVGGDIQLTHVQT

Galectin-1 [1] = target: T1, Galectin-1 (Homo sapiens, UniProt P09382); assay: Antagonist activity against human galectin 1 by fluorescence polarization assay
T1 sequence (P09382 whole entry, the tested form may be a part): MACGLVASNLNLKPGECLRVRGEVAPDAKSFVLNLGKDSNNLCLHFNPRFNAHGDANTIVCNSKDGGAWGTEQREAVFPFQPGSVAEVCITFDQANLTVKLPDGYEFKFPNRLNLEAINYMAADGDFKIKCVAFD

Galectin-8 = target: T2, Galectin-8 (Homo sapiens, UniProt O00214); assay: Antagonist activity against human galectin 8 N-terminal domain by fluorescence polarization assay
T2 sequence (O00214 whole entry): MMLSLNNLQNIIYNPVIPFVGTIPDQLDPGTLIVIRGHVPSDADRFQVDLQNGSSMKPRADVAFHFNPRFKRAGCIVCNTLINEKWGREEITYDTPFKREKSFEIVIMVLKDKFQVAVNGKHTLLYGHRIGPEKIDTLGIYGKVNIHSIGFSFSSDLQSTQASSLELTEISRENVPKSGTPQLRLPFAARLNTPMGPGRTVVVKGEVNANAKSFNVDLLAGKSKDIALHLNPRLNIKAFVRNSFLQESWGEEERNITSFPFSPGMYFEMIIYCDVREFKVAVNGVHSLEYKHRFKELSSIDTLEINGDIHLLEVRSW

Galectin-1 [2] = target: T1, Galectin-1; details: 10 mM
Description: Antagonist activity against human galectin 1 at 10 mM by fluorescence polarization assay

Galectin-3, sequence (P17931 whole entry): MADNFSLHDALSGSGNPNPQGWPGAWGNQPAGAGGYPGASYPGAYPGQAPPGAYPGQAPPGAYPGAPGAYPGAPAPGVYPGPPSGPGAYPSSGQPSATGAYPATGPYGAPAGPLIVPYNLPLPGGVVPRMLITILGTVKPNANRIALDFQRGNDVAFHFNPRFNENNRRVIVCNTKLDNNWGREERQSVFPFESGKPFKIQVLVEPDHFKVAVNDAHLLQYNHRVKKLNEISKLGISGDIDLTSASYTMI

| SMILES | Kd (Galectin-3) [µM] | Kd (Galectin-9) [µM] | Kd (Galectin-1 [1]; read-out: Kd) [µM] | Kd (Galectin-8) [µM] | Kd (Galectin-7; read-out: Kd) [µM] | Kd (Galectin-7) | Kd (Galectin-1 [1]) | inhibition (Galectin-1 [2]) |
| --- | --- | --- | --- | --- | --- | --- | --- | --- |
| Cc1ccc(S(=O)(=O)/N=c2\oc3ccccc3cc2CO[C@@H]2O[C@H](CO)[C@@H](O[C@@H]3O[C@H](CO)[C@H](O)[C@H](O)[C@H]3O)[C@H](O)[C@H]2O)cc1 | 130 | 80 | 500 | 140 |  | Not Active |  |  |
| CO[C@H]1O[C@H](CO)[C@H](O)[C@H](OCc2cc3ccccc3o/c2=N\S(=O)(=O)c2ccc(C)cc2)[C@H]1OC(C)=O | 97 | 36 | 5100 | 170 | 180 |  |  |  |
| CO[C@H]1O[C@H](CO)[C@H](O)[C@H](OCc2cc3ccccc3o/c2=N\S(=O)(=O)c2ccc(C)cc2)[C@H]1O | 120 | 140 | 1700 | 250 | 1700 |  |  |  |
| CS[C@@H]1O[C@H](CO)[C@H](O)[C@H](n2cc(C(=O)NCc3ccccc3)nn2)[C@H]1O |  | > 5000 |  |  |  |  | Not Active |  |
| CO[C@H]1O[C@H](CO)[C@H](O)[C@H](O)[C@H]1O |  | 2800 |  |  | 11000 |  |  | inactive |
| Cc1ccc(S(=O)(=O)/N=c2\oc3ccccc3cc2CO[C@@H]2O[C@H](CO)[C@H](O)[C@H](O)[C@H]2O)cc1 | 10000 | 7100 | 3600 | 3900 |  | Not Active |  |  |

Now from value to compound, other results behind:

| Kd (Galectin-3) [µM] | Kd (Galectin-9) [µM] | Kd (Galectin-1 [1]; read-out: Kd) [µM] | Kd (Galectin-8) [µM] | Kd (Galectin-7; read-out: Kd) [µM] | SMILES | Kd (Galectin-7) | Kd (Galectin-1 [1]) | inhibition (Galectin-1 [2]) |
| --- | --- | --- | --- | --- | --- | --- | --- | --- |
| 220 | 23 | 190 | 62 | 110 | CO[C@@H]1O[C@H](CO)[C@@H](O[C@@H]2O[C@H](CO)[C@H](O)[C@H](O)[C@H]2O)[C@H](O)[C@H]1O |  |  |  |
|  | 1500 | 980 | > 2000 | > 2000 | CS[C@@H]1O[C@H](CO)[C@H](O)[C@H](NC(=O)c2ccc(C)cc2)[C@H]1O |  |  |  |
| 78 | 180 | 1900 | 180 | 850 | CO[C@H]1O[C@H](CO)[C@H](O)[C@H](OCc2cc3ccccc3oc2=O)[C@H]1O |  |  |  |
| 81 | 76 | 650 | 390 | 1100 | CO[C@H]1O[C@H](CO)[C@H](O)[C@H](OCc2cc3ccccc3o/c2=N\S(=O)(=O)c2ccccc2)[C@H]1O |  |  |  |
| 130 | 45 | 4500 | 270 | 230 | CO[C@H]1O[C@H](CO)[C@H](O)[C@H](OCc2cc3ccccc3o/c2=N\S(=O)(=O)c2ccccc2)[C@H]1OC(C)=O |  |  |  |
